Reference: the NIST ThermoML archive (doi:10.1016/j.jct.2013.08.010)

Assay: mn = molality of the nth substance listed, in mol/kg
Conditions: 101 kPa, Liquid; for speed of sound: Sing-around technique in a fixed-path interferometer; for mass density: Vibrating tube method

C[C@H](N)C(=O)O [(S)-2-aminopropanoic acid] + O
Conditions	mass density, 288.15 K [kg/m3]	mass density, 298.15 K [kg/m3]	mass density, 308.15 K [kg/m3]	mass density, 318.15 K [kg/m3]	speed of sound, 288.15 K [m/s]	speed of sound, 298.15 K [m/s]	speed of sound, 308.15 K [m/s]	speed of sound, 318.15 K [m/s]
m1 = 0.00939	999.393	997.32	994.294	990.395	1467.6	1497.9	1520.8	1537
m1 = 0.04689	1000.52	998.405	995.339	991.404	1469.9	1499.8	1522.7	1539.2
m1 = 0.09896	1002.07	999.9	996.777	992.791	1472.8	1502.8	1525.5	1542
m1 = 0.2003	1005.04	1002.78	999.545	995.459	1480.3	1509.6	1531.8	1547.9
m1 = 0.2979	1007.86	1005.5	1002.16	997.981	1487.3	1515.9	1537.9	1553.2
m1 = 0.3997	1010.74	1008.28	1004.85	1000.56	1494.3	1522.7	1544	1558.7
m1 = 0.4941	1013.38	1010.81	1007.28	1002.91	1500.3	1528	1549	1564.1
m1 = 0.6099	1016.55	1013.87	1010.22	1005.75	1509.5	1536.7	1556.8	1571.4
m1 = 0.6973	1018.88	1016.12	1012.38	1007.84	1513.3	1540.4	1560.7	1574.7
m1 = 0.7978	1021.55	1018.68	1014.85	1010.19	1520	1546.2	1566	1580.9

CC(C)[C@H](N)C(=O)O [L-valine] + O
Conditions	mass density, 288.15 K [kg/m3]	mass density, 298.15 K [kg/m3]	mass density, 308.15 K [kg/m3]	mass density, 318.15 K [kg/m3]	speed of sound, 288.15 K [m/s]	speed of sound, 298.15 K [m/s]	speed of sound, 308.15 K [m/s]	speed of sound, 318.15 K [m/s]
m1 = 0.00555	999.264	997.195	994.174	990.28	1467.4	1497.5	1520.4	1537.1
m1 = 0.02398	999.773	997.685	994.647	990.74	1467.3	1497.4	1520.4	1537.4
m1 = 0.03504	1000.08	997.977	994.929	991.014	1469.7	1499.6	1522	1538.7
m1 = 0.05824	1000.71	998.588	995.518	991.588	1469.6	1499.7	1522.6	1539
m1 = 0.07873	1001.27	999.124	996.034	992.09	1472.8	1502.4	1525	1541.2
m1 = 0.09938	1001.83	999.658	996.551	992.593	1474.8	1504.4	1526.9	1542.7
m1 = 0.2068	1004.69	1002.41	999.213	995.181	1477	1506.2	1528.2	1544.4
m1 = 0.2992	1007.1	1004.73	1001.45	997.351	1488.4	1516.6	1537.8	1552.5
m1 = 0.4017	1009.7	1007.24	1003.87	999.709	1497.2	1524.8	1545.2	1560.4

NCC(=O)O [2-aminoacetic acid] + O
Conditions	mass density, 288.15 K [kg/m3]	mass density, 298.15 K [kg/m3]	mass density, 308.15 K [kg/m3]	mass density, 318.15 K [kg/m3]	speed of sound, 288.15 K [m/s]	speed of sound, 298.15 K [m/s]	speed of sound, 308.15 K [m/s]	speed of sound, 318.15 K [m/s]
m1 = 0.01207	999.51	997.439	994.412	990.513	1467.2	1497.7	1520	1537.2
m1 = 0.0523	1000.84	998.74	–	991.747	1470.1	1500.1	1522.9	1538.9
m1 = 0.1037	1002.52	1000.39	997.281	993.309	1472.3	1502.3	1524.7	1541.1
m1 = 0.2037	1005.77	1003.57	1000.37	996.317	1477.8	1507.2	1529.7	1545.8
m1 = 0.3068	1009.07	1006.8	1003.51	–	1483.4	1512.4	1534.6	1551.4
m1 = 0.4124	1012.4	1010.06	1006.68	1002.46	1488.7	1517.8	1539.7	1555.4
m1 = 0.5028	1015.22	1012.82	1009.36	1005.06	1494.5	1523	1543.8	1560.2
m1 = 0.6058	1018.38	1015.9	1012.35	1007.97	1499.2	1527.3	1548.7	1564.1
m1 = 0.6829	1020.71	1018.19	1014.55	1010.1	1503.4	1531.3	1552.5	1567.7
m1 = 0.82	1024.83	1022.23	1018.45	1013.89	1510.2	1537.7	1558.6	1573.5
